Like-named read-outs stand apart in the source and are kept apart here.
What was measured:
Format in all cases: biochemical
MMP-9 = target: T1, MMP-9 (Homo sapiens, UniProt P14780); test: In vitro specific inhibition of MMP-9 activity (Biomol assay kit); details: for IC50: selected standards, Table 4, read-out: inhibition expressed as IC50 against MMP-9 (converted); for in vitro MMP-9 inhibition activity, in words: summary of Tables 2 and 4
T1 construct: purchased Biomol
Procedure: (§1) Several extracts and sub-fractions from the leaves of Menyanthes trifoliata were prepared by liquid-liquid partitioning and fractionation on a Sephadex LH20 gel filtration column (see example 1) and evaluated for specific anti-MMP activity. In vitro specific inhibition of MMP-2 and MMP-9 activity was estimated with assay kits from Biomol®. Recombinant human MMP-1 enzyme may be obtained from any commercially available source. […] Therefore, a lower value indicates a stronger MMP inhibition.
(§2) To further understand which agents may be contributing to the MMP-1, 2, 9 inhibition activity, standards of the different phenol acids, flavonoids and coumarins, identified in Menyanthes trifoliata extracts, were tested for their in vitro inhibition of MMPs-1, 2 and 9. In vitro specific inhibition of MMP-2 and MMP-9 activity is estimated with assay kits from Biomol®. Recombinant human MMP-1 enzyme is obtained from any commercially available source.

[1] = target: T2, Recombinant human MMP-1 enzyme (Homo sapiens, UniProt P03956); test: In vitro inhibition of MMP-1 activity; details: for in vitro MMP-1 inhibition activity, in words: summary of Tables 2 and 4
T2 construct: purchased
T2 sequence (P03956 100-469): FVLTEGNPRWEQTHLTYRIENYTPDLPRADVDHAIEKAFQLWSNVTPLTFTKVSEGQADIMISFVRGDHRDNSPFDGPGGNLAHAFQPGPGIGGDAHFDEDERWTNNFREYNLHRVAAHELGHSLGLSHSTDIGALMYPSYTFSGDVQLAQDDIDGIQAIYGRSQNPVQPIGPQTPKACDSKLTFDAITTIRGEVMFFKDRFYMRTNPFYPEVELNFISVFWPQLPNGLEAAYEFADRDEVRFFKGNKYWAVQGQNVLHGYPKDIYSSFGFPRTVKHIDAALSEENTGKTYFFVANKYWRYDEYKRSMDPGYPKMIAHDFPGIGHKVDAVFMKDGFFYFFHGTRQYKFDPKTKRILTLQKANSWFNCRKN
Source text: In vitro specific inhibition of MMP-2 and MMP-9 activity was estimated with assay kits from Biomol®. Recombinant human MMP-1 enzyme may be obtained from any commercially available source. […] Therefore, a lower value indicates a stronger MMP inhibition.
In vitro specific inhibition of MMP-2 and MMP-9 activity is estimated with assay kits from Biomol®. Recombinant human MMP-1 enzyme is obtained from any commercially available source.

MMP-2 = target: T3, MMP-2 (Homo sapiens, UniProt P08253); test: In vitro specific inhibition of MMP-2 activity (Biomol assay kit); details: for IC50: selected standards, Table 4, read-out: inhibition expressed as IC50 against MMP-2 (converted); for in vitro MMP-2 inhibition activity, in words: summary of Tables 2 and 4
T3 construct: purchased Biomol
Procedure: as §1, §2

[2] = Peroxynitrite scavenging (ABEL peroxynitrite antioxidant test kit with Pholasin); details: summary of Table 6
Procedure: Assay was performed with the ABEL® peroxynitrite antioxidant test kit with Pholasin®. Standards of different phenolic acids and flavonoids, identified in […] trifoliata extracts, were tested for their in vitro peroxynitrite scavenging activity. Assay was performed with the ABEL® peroxynitrite antioxidant test kit with Pholasin®.

[3] = selected standards, Table 4, read-out: inhibition expressed as IC50 against MMP-1 (converted)

T1 sequence (P14780 107-444 limits assumed): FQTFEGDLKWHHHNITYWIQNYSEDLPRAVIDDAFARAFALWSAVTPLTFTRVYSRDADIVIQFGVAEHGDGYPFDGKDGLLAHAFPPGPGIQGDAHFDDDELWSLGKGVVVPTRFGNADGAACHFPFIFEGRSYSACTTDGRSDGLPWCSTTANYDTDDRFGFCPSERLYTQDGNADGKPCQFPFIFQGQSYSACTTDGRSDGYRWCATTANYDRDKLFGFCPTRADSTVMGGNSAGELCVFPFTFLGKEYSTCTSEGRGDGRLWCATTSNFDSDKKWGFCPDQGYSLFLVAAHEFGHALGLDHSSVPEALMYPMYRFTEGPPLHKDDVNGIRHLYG
T3 sequence (P08253 110-446 limits assumed): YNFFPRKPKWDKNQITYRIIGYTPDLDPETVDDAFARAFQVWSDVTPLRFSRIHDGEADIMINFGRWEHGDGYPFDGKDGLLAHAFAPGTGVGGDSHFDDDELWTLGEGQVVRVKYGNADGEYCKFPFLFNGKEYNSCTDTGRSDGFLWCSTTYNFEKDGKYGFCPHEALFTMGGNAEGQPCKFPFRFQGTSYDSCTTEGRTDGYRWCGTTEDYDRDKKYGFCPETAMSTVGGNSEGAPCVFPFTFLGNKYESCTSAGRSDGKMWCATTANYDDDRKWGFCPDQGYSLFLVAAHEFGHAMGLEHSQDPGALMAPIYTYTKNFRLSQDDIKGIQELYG

| in vitro MMP-9 inhibition activity, in words (MMP-9) | in vitro MMP-1 inhibition activity, in words [1] | in vitro MMP-2 inhibition activity, in words (MMP-2) | IC50 [1, 3] [µM] | SMILES | IC50 (MMP-9) [µM] | IC50 [1] [µM] | IC50 (MMP-2) [µM] | peroxynitrite scavenging activity, in words [2] |
| --- | --- | --- | --- | --- | --- | --- | --- | --- |
| strong | strong | strong | 72.7 | COc1cc2ccc(=O)oc2cc1OC [Scoparone] | 48.5 |  | 87.3 |  |
| strong | strong | strong | 78.1 | COc1cc2ccc(=O)oc2cc1O [Scopoletin] | 130 |  | 93.7 |  |
| strong | strong | strong | 144 | COc1cc(/C=C/C(=O)O)ccc1O [ferulic acid] | 103 |  | 113 | strong |
| not | not |  |  | O=C(O)c1ccc(O)cc1 [p-hydroxy-benzoic acid] |  |  |  |  |

Continued, compound first:

| SMILES | in vitro MMP-9 inhibition activity, in words (MMP-9) | in vitro MMP-1 inhibition activity, in words [1] | in vitro MMP-2 inhibition activity, in words (MMP-2) | IC50 [1, 3] [µM] | IC50 (MMP-9) [µM] | IC50 [1] [µM] | IC50 (MMP-2) [µM] | peroxynitrite scavenging activity, in words [2] |
| --- | --- | --- | --- | --- | --- | --- | --- | --- |
| O=c1c(O[C@@H]2O[C@H](CO)[C@@H](O)[C@H](O)[C@H]2O)c(-c2ccc(O)c(O)c2)oc2cc(O)cc(O)c12 [Iso-quercitrin] |  |  |  |  | 198 | 49.5 | 21.5 |  |
| O=C(O)c1ccc(O)c(O)c1 [Protocatechuic acid] |  |  |  |  |  |  |  | strong |
| O=c1c(O)c(-c2ccc(O)c(O)c2)oc2cc(O)cc(O)c12 [Quercetin] | strong | strong | strong |  | 62.9 |  | 33.1 | strong |
| C[C@@H]1O[C@@H](OC[C@H]2O[C@@H](Oc3c(-c4ccc(O)c(O)c4)oc4cc(O)cc(O)c4c3=O)[C@H](O)[C@@H](O)[C@@H]2O)[C@H](O)[C@H](O)[C@H]1O [Rutin] |  |  |  | 65.5 | 70.4 |  | 45.9 |  |
